We go through 1 molecule from article PMC9147192, “Small Molecule Arranged Thermal Proximity Coaggregation (smarTPCA)—A Novel Approach to Characterize Protein–Protein Interactions in Living Cells by Similar Isothermal Dose–Responses” (International Journal of Molecular Sciences, 2022).

Molecules are shown by their SMILES.

By Hill slope is commonly meant a measure of the steepness of the concentration-response curve.

In one experiment the target is T1, OGDH (Homo sapiens, UniProt Q02218).
T1 construct: endogenous in cells; host or cells: HL-60 (ATCC CCL-240)
T1 sequence (Q02218 41-1023): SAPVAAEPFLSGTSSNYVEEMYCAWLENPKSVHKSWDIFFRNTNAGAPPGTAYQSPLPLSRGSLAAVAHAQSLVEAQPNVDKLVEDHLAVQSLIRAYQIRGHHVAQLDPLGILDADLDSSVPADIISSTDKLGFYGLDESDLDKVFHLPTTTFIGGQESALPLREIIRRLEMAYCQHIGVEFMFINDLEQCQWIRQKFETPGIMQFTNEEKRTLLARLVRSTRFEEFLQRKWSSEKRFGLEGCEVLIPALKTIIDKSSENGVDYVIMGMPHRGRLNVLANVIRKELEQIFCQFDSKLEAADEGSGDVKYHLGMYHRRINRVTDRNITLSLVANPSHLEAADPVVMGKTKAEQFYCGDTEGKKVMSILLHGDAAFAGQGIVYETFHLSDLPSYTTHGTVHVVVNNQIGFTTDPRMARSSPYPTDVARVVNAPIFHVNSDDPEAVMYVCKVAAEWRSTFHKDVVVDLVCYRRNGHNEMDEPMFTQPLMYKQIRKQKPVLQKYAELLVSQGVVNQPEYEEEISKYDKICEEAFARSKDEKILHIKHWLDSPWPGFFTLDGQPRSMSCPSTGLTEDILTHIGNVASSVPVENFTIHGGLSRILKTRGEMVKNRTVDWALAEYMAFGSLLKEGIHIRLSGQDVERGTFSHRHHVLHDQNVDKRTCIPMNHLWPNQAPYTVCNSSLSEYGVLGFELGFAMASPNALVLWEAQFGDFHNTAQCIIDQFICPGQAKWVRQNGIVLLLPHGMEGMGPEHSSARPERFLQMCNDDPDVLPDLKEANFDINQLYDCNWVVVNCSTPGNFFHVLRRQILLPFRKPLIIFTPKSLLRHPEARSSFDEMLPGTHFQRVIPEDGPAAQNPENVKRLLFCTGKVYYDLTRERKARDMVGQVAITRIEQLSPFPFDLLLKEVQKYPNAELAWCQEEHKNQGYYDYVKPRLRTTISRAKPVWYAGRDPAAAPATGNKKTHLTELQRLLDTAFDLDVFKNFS
As to the kind of experiment: TPP-CCR in living HL-60 cells. The class given is cell-based.

In another experiment the target is T2, ENDOG (Homo sapiens, UniProt Q14249).
T2 construct: endogenous in cells; host or cells: HL-60 (ATCC CCL-240)
T2 sequence (Q14249 49-297): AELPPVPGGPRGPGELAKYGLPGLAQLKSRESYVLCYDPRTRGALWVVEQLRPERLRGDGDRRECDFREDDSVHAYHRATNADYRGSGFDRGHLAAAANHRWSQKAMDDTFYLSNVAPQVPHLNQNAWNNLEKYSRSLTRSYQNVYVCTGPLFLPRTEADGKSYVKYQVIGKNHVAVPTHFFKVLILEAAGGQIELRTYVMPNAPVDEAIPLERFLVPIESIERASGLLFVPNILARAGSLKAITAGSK
As to the kind of experiment: TPP-CCR in living HL-60 cells. Type of experiment: cell-based.

The mark [1] stands for this setting: living HL-60 cells, […] °C, TMT-MS.

For the molecule `Cc1cnc(Nc2ccc(F)cc2Cl)nc1-c1c[nH]c(C(=O)N[C@H](CO)c2cccc(Cl)c2)c1` [ERK 11e], the Hill slope on OGDH (TPP-CCR, living cells, OGDH) is given as 0.43; at ENDOG (TPP-CCR, living cells, ENDOG) it was 0.40. In addition, the EC50 at OGDH (setting [1]) is 417 nM; at ENDOG (living HL-60 cells, […] °C, TMT-MS, read-out: pEC50 (ENDOG) (converted)) it was 2.75 nM. At OGDH (setting [1]), the “Hill slope (OGDH)” value is 0.43. In addition, on ENDOG (setting [1]), the “Hill slope (ENDOG)” value came out at 0.40.
